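Cells were grown in 96-well plates and exposed to each compound for 48 hours at five concentrations; endpoints were interpolated linearly between bracketing concentrations, or set to the highest concentration if not reached. GI50 marks 50% less growth.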 Activity calls are given as the source filed them. Rule as the data show it: active = GI50 up to about 1.1 µM and inactive = higher.
Columns and labels:
Test in all cases: growth of human tumour cells (NCI), 48 h
[1] = test system: SNB-75
[2] = test system: RPMI-8226
[3] = test system: MCF7
[4] = test system: HOP-18
[5] = test system: MDA-MB-435
[6] = test system: BT-549
[7] = test system: KM12
[8] = test system: OVCAR-8
[9] = test system: SK-MEL-5
[10] = test system: DMS-273
[11] = test system: HL-60
[12] = test system: A498
[13] = test system: ACHN
[14] = test system: OVCAR-4
[15] = test system: SF-268
[16] = test system: TK-10
[17] = test system: HT-29
[18] = test system: HOP-62
[19] = test system: SNB-19
[20] = test system: UACC-257
[21] = test system: NCI-H522
[22] = test system: M19-MEL
[23] = test system: Hs-578T
[24] = test system: K562
[25] = test system: M14
[26] = test system: SK-MEL-2
[27] = test system: SNB-78
[28] = test system: DU-145
[29] = test system: HCT-15
[30] = test system: HOP-92
[31] = test system: PC-3
[32] = test system: OVCAR-5
[33] = test system: UACC-62
[34] = test system: LXFL 529
[35] = test system: SR
[36] = test system: IGROV-1
[37] = test system: NCI-H226
[38] = test system: 786-0
[39] = test system: COLO 205
[40] = test system: EKVX
[41] = test system: RXF 631
[42] = test system: RXF 393
[43] = test system: Malme-3M
[44] = test system: CAKI-1
[45] = test system: KM-20L2
[46] = test system: SN12C
[47] = test system: DLD-1
[48] = test system: HCC 2998
[49] = test system: OVCAR-3
[50] = test system: NCI-H460
[51] = test system: A549
[52] = test system: DMS-114
[53] = test system: SK-OV-3
[54] = test system: MOLT-4
[55] = test system: U-251
[56] = test system: SW-620
[57] = test system: NCI-H23
[58] = test system: UO-31
[59] = test system: T47D
[60] = test system: SF-539
[61] = test system: XF498
[62] = test system: HCT-116
[63] = test system: CCRF-CEM
[64] = test system: MDA-N
[65] = test system: LOX IMVI
[66] = test system: SF-295
[67] = test system: SK-MEL-28
[68] = test system: MDA-MB-231

In the case of `CC(=O)Oc1cccc2c1C(=O)C(Br)(Br)CCC2`, the GI50 [1] is reported as 6.1 µM (inactive), the GI50 [2] is reported as 2.22 µM (inactive) and the GI50 [3] is reported as 2.29 µM (inactive). The GI50 [4] was 18.2 µM (inactive), the GI50 [5] was 3.56 µM (inactive) and the GI50 [6] was 2.14 µM (inactive). The GI50 [7] was 8.49 µM (inactive), the GI50 [8] was 4.38 µM (inactive) and the GI50 [9] was 4.41 µM (inactive). The GI50 [10] was 3.75 µM (inactive), the GI50 [11] was 2.38 µM (inactive) and the GI50 [12] was 19 µM (inactive). For the same compound, the GI50 [13] was 6.38 µM (inactive), the GI50 [14] was 1.83 µM (inactive) and the GI50 [15] was 8.34 µM (inactive). For the same compound, the GI50 [16] was 16.9 µM (inactive), the GI50 [17] was 5.55 µM (inactive) and the GI50 [18] was 14.4 µM (inactive). For the same compound, the GI50 [19] was 11.1 µM (inactive), the GI50 [20] was 10.9 µM (inactive) and the GI50 [21] was 1.87 µM (inactive). The GI50 [22] was 7.28 µM (inactive), the GI50 [23] was 7.38 µM (inactive) and the GI50 [24] was 3.3 µM (inactive). For the same compound, the GI50 [25] was 2.51 µM (inactive), the GI50 [26] was 9.23 µM (inactive) and the GI50 [27] was 17.3 µM (inactive). The GI50 [28] was 13.7 µM (inactive), the GI50 [29] was 5.12 µM and the GI50 [30] was 2.93 µM (inactive). For the same compound, the GI50 [31] was 3.96 µM (inactive), the GI50 [32] was 7.6 µM (inactive) and the GI50 [33] was 7.76 µM (inactive). For the same compound, the GI50 [34] was 6.55 µM (inactive), the GI50 [35] was 1.77 µM (inactive) and the GI50 [36] was 13.5 µM (inactive). The GI50 [37] was 6.68 µM (inactive), the GI50 [38] was 5.32 µM (inactive) and the GI50 [39] was 6.52 µM (inactive). The GI50 [40] was 11 µM (inactive), the GI50 [41] was 17.4 µM (inactive) and the GI50 [42] was 6.24 µM (inactive). For the same compound, the GI50 [43] was 4.07 µM (inactive), the GI50 [44] was 6.62 µM (inactive) and the GI50 [45] was 8.05 µM (inactive). The GI50 [46] was 5.86 µM (inactive), the GI50 [47] was 10.1 µM (inactive) and the GI50 [48] was 15.3 µM (inactive). The GI50 [49] was 6.97 µM (inactive), the GI50 [50] was 17.3 µM (inactive) and the GI50 [51] was 17.7 µM (inactive). For the same compound, the GI50 [52] was 2.54 µM (inactive), the GI50 [53] was 10.1 µM (inactive) and the GI50 [54] was 1.11 µM (active). The GI50 [55] was 9.62 µM (inactive), the GI50 [56] was 2.81 µM (inactive) and the GI50 [57] was 4.29 µM (inactive). For the same compound, the GI50 [58] was 9.46 µM (inactive), the GI50 [59] was 2.53 µM (inactive) and the GI50 [60] was 9.31 µM (inactive). For the same compound, the GI50 [61] was 11.2 µM (inactive), the GI50 [62] was 3.26 µM (inactive) and the GI50 [63] was 1.34 µM (inactive). For the same compound, the GI50 [64] was 2.89 µM (inactive), the GI50 [65] was 2.17 µM (inactive) and the GI50 [66] was 17.5 µM (inactive). The GI50 [67] was 10.5 µM (inactive) and the GI50 [68] was 2.38 µM (inactive).

With `C[n+]1[se]c2ccccc2c1Cl` the GI50 [1] was 17.6 µM (inactive), the GI50 [2] was 33.1 µM (inactive) and the GI50 [4] was 20.7 µM (inactive). The GI50 [7] was > 40.2 µM (inactive), the GI50 [8] was 45 µM (inactive) and the GI50 [9] was 16.6 µM (inactive). The GI50 [10] was 20 µM (inactive), the GI50 [11] was 7.89 µM (inactive) and the GI50 [12] was > 59.4 µM (inactive). The GI50 [13] was > 48.8 µM (inactive), the GI50 [14] was 31 µM (inactive) and the GI50 [15] was 20.9 µM (inactive). The GI50 [16] was > 43.4 µM (inactive), the GI50 [17] was 28.4 µM (inactive) and the GI50 [18] was > 40.7 µM (inactive). For the same compound, the GI50 [19] was > 67.8 µM (inactive), the GI50 [20] was 17.9 µM (inactive) and the GI50 [21] was 20.3 µM (inactive). The GI50 [22] was 10.3 µM (inactive), the GI50 [24] was 36.4 µM (inactive) and the GI50 [25] was 13.7 µM (inactive). The GI50 [26] was 11.7 µM (inactive), the GI50 [27] was 27.8 µM (inactive) and the GI50 [29] was 24.7 µM. The GI50 [30] was 7.31 µM (inactive), the GI50 [32] was > 52.1 µM (inactive) and the GI50 [33] was 17.7 µM (inactive). For the same compound, the GI50 [34] was 28.1 µM (inactive), the GI50 [36] was 31 µM (inactive) and the GI50 [37] was 25.6 µM (inactive). For the same compound, the GI50 [38] was > 45 µM (inactive), the GI50 [39] was > 43.9 µM (inactive) and the GI50 [40] was 24.1 µM (inactive). The GI50 [41] was 25.1 µM (inactive), the GI50 [42] was 19.5 µM (inactive) and the GI50 [43] was 23.3 µM (inactive). The GI50 [44] was > 41.8 µM (inactive), the GI50 [45] was > 51.1 µM (inactive) and the GI50 [46] was 15.5 µM (inactive). The GI50 [47] was 25.7 µM (inactive), the GI50 [48] was > 47.8 µM (inactive) and the GI50 [49] was 27 µM (inactive). For the same compound, the GI50 [50] was 35.3 µM (inactive), the GI50 [51] was 32 µM (inactive) and the GI50 [52] was 35.3 µM (inactive). The GI50 [53] was > 89.3 µM (inactive), the GI50 [54] was 13.5 µM (inactive) and the GI50 [55] was 30.9 µM (inactive). The GI50 [56] was 20 µM (inactive), the GI50 [57] was 20.1 µM (inactive) and the GI50 [58] was 24.8 µM (inactive). The GI50 [60] was 19.3 µM (inactive), the GI50 [61] was 37.2 µM (inactive) and the GI50 [62] was 16.9 µM (inactive). The GI50 [63] was 8.67 µM (inactive), the GI50 [65] was 19.9 µM (inactive) and the GI50 [66] was 21.7 µM (inactive). For the same compound, the GI50 [67] was 23.4 µM (inactive).
